{"source": "patent US8741961B2", "about": "(Cutech S.r.l., priority 2007, dated 2014)", "format_in_all_cases": "cell-based", "key": {"[1]": {"tested_on": "Human anagen hair follicles", "assay": "Growth (elongation) of isolated human hair follicles in organ culture", "details": "for Effect on hair growth compared to other MAOI (in words): comparative experiment, Table 4", "method": "Human anagen hair follicles were isolated from scalp skin and transferred for cultivation in sterile 24-well plates using a modified Williams' Medium E. Cultivation took place for nine days, while the experimental treatment of the follicles started 24 hours after the beginning of cultivation.\nHair follicles taken from a single donor were selected for the experiments after 18 h of cultivation Only follicles showing a good vital stage and a growth of not less than 0.2 mm were considered suitable to be maintained in culture. 4 groups comprising 9 follicles were prepared, plated at the density of three hair follicles/plate. […] The growth of the hair follicles was studied by microphotography and subsequently determined by image analysis. All hair follicles were photographed every two days."}, "[2]": {"tested_on": "Human anagen hair follicles", "assay": "Histological analysis of hair follicles (anagen/catagen phase) after 9 days of cultivation", "details": "for Hair follicles in anagen phase / Hair follicles in catagen phase: after 9 days of cultivation", "source_text": "Subsequently, the hair follicles were subjected to a histological analysis by colouring with haematossilin and eosin in order to verify the morphological state of the dermopapilla."}, "[3]": {"tested_on": "Human anagen hair follicles", "assay": "Number of proliferative (Ki-67) and apoptotic (Apoptag) cells in the dermopapilla of hair follicles", "details": "for Number of cells in apoptotic state ± standard error / Number of cells in proliferative state ± standard error: after three days of cultivation, % of total cells in dermopapilla", "method": "After three days of cultivation, samples were taken in order to determine the relative number of cells being in the proliferative or apoptotic state. The cells in apoptotic state were determined using an Apoptag Fluorescein In-situ Apoptosis Detection Kit (Chemicon International cod. S7110), while those in the proliferative state were marked with the antibody Ki-67 (monoclonal mouse anti-human Ki-67, clone MIB1, Dako Cytomation cod. M7240). The total number of cells in the dermopapilla was analysed by marking their nuclei by means of DAPI (4′,6-diamidino-2-phenylindol dihydrochloride). The percentage of cells in the proliferative or apoptotic state compared to the total number of cells was determined again by image analysis."}, "[4]": {"tested_on": "Human anagen hair follicles", "assay": "Growth (elongation) of isolated human hair follicles in organ culture", "details": "Table 1"}, "[5]": {"details": "0.01 mM, day 1 of cultivation, Table 4 comparative experiment"}, "[6]": {"details": "0.01 mM, day 3 of cultivation, Table 4 comparative experiment"}, "[7]": {"details": "0.01 mM, day 5 of cultivation, Table 4 comparative experiment"}, "[8]": {"details": "0.01 mM, day 7 of cultivation, Table 4 comparative experiment"}, "[9]": {"details": "0.01 mM, day 9 of cultivation, Table 4 comparative experiment"}, "[10]": {"details": "0.1 mM, day 1 of cultivation, Table 4 comparative experiment"}, "[11]": {"details": "0.1 mM, day 3 of cultivation, Table 4 comparative experiment"}, "[12]": {"details": "0.1 mM, day 5 of cultivation, Table 4 comparative experiment"}, "[13]": {"details": "0.1 mM, day 7 of cultivation, Table 4 comparative experiment"}, "[14]": {"details": "0.1 mM, day 9 of cultivation, Table 4 comparative experiment"}}}
{"molecule": "C#CCN(C)CCCOc1ccc(Cl)cc1Cl", "note": "[Chlorgyline]", "values": [{"measurement": "Growth of hair follicles - elongation ± standard error", "setting": "[1]; [5]", "value": 0, "unit": "mm"}, {"measurement": "Growth of hair follicles - elongation ± standard error", "setting": "[1]; [6]", "value": "0.35 ± 0.02", "unit": "mm"}, {"measurement": "Growth of hair follicles - elongation ± standard error", "setting": "[1]; [7]", "value": "0.49 ± 0.02", "unit": "mm"}, {"measurement": "Growth of hair follicles - elongation ± standard error", "setting": "[1]; [8]", "value": "0.61 ± 0.04", "unit": "mm"}, {"measurement": "Growth of hair follicles - elongation ± standard error", "setting": "[1]; [9]", "value": "0.72 ± 0.07", "unit": "mm"}, {"measurement": "Growth of hair follicles - elongation ± standard error", "setting": "[1]; [10]", "value": 0, "unit": "mm"}, {"measurement": "Growth of hair follicles - elongation ± standard error", "setting": "[1]; [11]", "value": "0.33 ± 0.02", "unit": "mm"}, {"measurement": "Growth of hair follicles - elongation ± standard error", "setting": "[1]; [12]", "value": "0.55 ± 0.04", "unit": "mm"}, {"measurement": "Growth of hair follicles - elongation ± standard error", "setting": "[1]; [13]", "value": "0.67 ± 0.05", "unit": "mm"}, {"measurement": "Growth of hair follicles - elongation ± standard error", "setting": "[1]; [14]", "value": "0.79 ± 0.09", "unit": "mm"}, {"measurement": "Effect on hair growth compared to other MAOI (in words)", "setting": "[1]", "value": "did not exert any effect on hair growth"}]}
{"molecule": "Pargyline", "values": [{"measurement": "Growth of hair follicles - elongation ± standard error", "setting": "[1]; 0.01 mM, day 3 of cultivation, Table 1", "value": "0.51 ± 0.03", "unit": "mm"}, {"measurement": "Growth of hair follicles - elongation ± standard error", "setting": "[1]; 0.01 mM, day 5 of cultivation, Table 1", "value": "0.80 ± 0.07", "unit": "mm"}, {"measurement": "Growth of hair follicles - elongation ± standard error", "setting": "[1]; 0.01 mM, day 9 of cultivation, Table 1", "value": "1.47 ± 0.15", "unit": "mm"}, {"measurement": "Growth of hair follicles - elongation ± standard error", "setting": "[1]; 0.1 mM, day 1 of cultivation, Table 1", "value": 0, "unit": "mm"}, {"measurement": "Growth of hair follicles - elongation ± standard error", "setting": "[1]; [10]", "value": 0, "unit": "mm"}, {"measurement": "Growth of hair follicles - elongation ± standard error", "setting": "[1]; 0.1 mM, day 3 of cultivation, Table 1", "value": "0.55 ± 0.04", "unit": "mm"}, {"measurement": "Growth of hair follicles - elongation ± standard error", "setting": "[1]; [11]", "value": "0.56 ± 0.02", "unit": "mm"}, {"measurement": "Growth of hair follicles - elongation ± standard error", "setting": "[1]; 0.1 mM, day 5 of cultivation, Table 1", "value": "0.91 ± 0.12", "unit": "mm"}, {"measurement": "Growth of hair follicles - elongation ± standard error", "setting": "[1]; [12]", "value": "0.78 ± 0.04", "unit": "mm"}, {"measurement": "Growth of hair follicles - elongation ± standard error", "setting": "[1]; 0.1 mM, day 7 of cultivation, Table 1", "value": "1.19 ± 0.17", "unit": "mm"}, {"measurement": "Growth of hair follicles - elongation ± standard error", "setting": "[1]; [14]", "value": "1.22 ± 0.08", "unit": "mm"}, {"measurement": "Growth of hair follicles - elongation ± standard error", "setting": "[1]; 0.5 mM, day 3 of cultivation, Table 1", "value": "0.55 ± 0.05", "unit": "mm"}, {"measurement": "Growth of hair follicles - elongation ± standard error", "setting": "[1]; 0.5 mM, day 5 of cultivation, Table 1", "value": "0.81 ± 0.11", "unit": "mm"}, {"measurement": "Growth of hair follicles - elongation ± standard error", "setting": "[1]; 0.5 mM, day 9 of cultivation, Table 1", "value": "1.17 ± 0.19", "unit": "mm"}, {"measurement": "Effect on growth of the hair follicles (in words)", "setting": "[1]; 0.01 to 0.5 mM versus control, Table 1", "value": "significant increase in growth of the hair follicles"}, {"measurement": "Effect on hair growth compared to other MAOI (in words)", "setting": "[1]", "value": "the only active species"}, {"measurement": "Hair follicles in anagen phase", "setting": "[2]; 0.01 mM", "value": 78, "unit": "%"}, {"measurement": "Hair follicles in catagen phase", "setting": "[2]; 0.01 mM", "value": 22, "unit": "%"}, {"measurement": "Hair follicles in anagen phase", "setting": "[2]; 0.1 mM", "value": 67, "unit": "%"}, {"measurement": "Hair follicles in catagen phase", "setting": "[2]; 0.1 mM", "value": 33, "unit": "%"}, {"measurement": "Hair follicles in anagen phase", "setting": "[2]; 0.5 mM", "value": 56, "unit": "%"}, {"measurement": "Hair follicles in catagen phase", "setting": "[2]; 0.5 mM", "value": 44, "unit": "%"}, {"measurement": "Effect on decline in the catagen phase (in words)", "setting": "[2]; 0.01 to 0.5 mM versus control", "value": "significantly delayed the decline in the catagen phase"}, {"measurement": "Number of cells in apoptotic state ± standard error", "setting": "[3]; 0.01 mM", "value": "0.93% ± 0.37"}, {"measurement": "Number of cells in proliferative state ± standard error", "setting": "[3]; 0.01 mM", "value": "1.67% ± 0.4"}, {"measurement": "Number of cells in apoptotic state ± standard error", "setting": "[3]; 0.1 mM", "value": "0.95% ± 0.08"}, {"measurement": "Number of cells in proliferative state ± standard error", "setting": "[3]; 0.1 mM", "value": "2.89% ± 0.99"}, {"measurement": "Effect on number of apoptotic cells (in words)", "setting": "[3]; versus control", "value": "only a marginal effect in increasing the number of apoptotic cells"}, {"measurement": "Effect on number of cells in proliferative state (in words)", "setting": "[3]; versus control", "value": "significantly increases the number of cells in an active, proliferative state"}, {"measurement": "Growth of hair follicles - elongation ± standard error", "setting": "[4]; 0.01 mM, day 1 of cultivation", "value": 0, "unit": "mm"}, {"measurement": "Growth of hair follicles - elongation ± standard error", "setting": "[4]; 0.1 mM, day 9 of cultivation", "value": "1.60 ± 0.19", "unit": "mm"}, {"measurement": "Growth of hair follicles - elongation ± standard error", "setting": "[4]; 0.5 mM, day 1 of cultivation", "value": 0, "unit": "mm"}]}
{"molecule": "C#CCN(C)[C@H](C)Cc1ccccc1", "note": "[R-Selegiline]", "values": [{"measurement": "Growth of hair follicles - elongation ± standard error", "setting": "[1]; [5]", "value": 0, "unit": "mm"}, {"measurement": "Growth of hair follicles - elongation ± standard error", "setting": "[1]; [6]", "value": "0.35 ± 0.02", "unit": "mm"}, {"measurement": "Growth of hair follicles - elongation ± standard error", "setting": "[1]; [7]", "value": "0.52 ± 0.03", "unit": "mm"}, {"measurement": "Growth of hair follicles - elongation ± standard error", "setting": "[1]; [8]", "value": "0.62 ± 0.05", "unit": "mm"}, {"measurement": "Growth of hair follicles - elongation ± standard error", "setting": "[1]; [9]", "value": "0.80 ± 0.06", "unit": "mm"}, {"measurement": "Growth of hair follicles - elongation ± standard error", "setting": "[1]; [10]", "value": 0, "unit": "mm"}, {"measurement": "Growth of hair follicles - elongation ± standard error", "setting": "[1]; [11]", "value": "0.34 ± 0.02", "unit": "mm"}, {"measurement": "Growth of hair follicles - elongation ± standard error", "setting": "[1]; [12]", "value": "0.53 ± 0.04", "unit": "mm"}, {"measurement": "Growth of hair follicles - elongation ± standard error", "setting": "[1]; [13]", "value": "0.65 ± 0.06", "unit": "mm"}, {"measurement": "Growth of hair follicles - elongation ± standard error", "setting": "[1]; [14]", "value": "0.82 ± 0.12", "unit": "mm"}]}
{"molecule": "C#CCN(C)[C@@H](C)Cc1ccccc1", "note": "[S-Selegiline]", "values": [{"measurement": "Growth of hair follicles - elongation ± standard error", "setting": "[1]; [5]", "value": 0, "unit": "mm"}, {"measurement": "Growth of hair follicles - elongation ± standard error", "setting": "[1]; [6]", "value": "0.33 ± 0.02", "unit": "mm"}, {"measurement": "Growth of hair follicles - elongation ± standard error", "setting": "[1]; [7]", "value": "0.49 ± 0.02", "unit": "mm"}, {"measurement": "Growth of hair follicles - elongation ± standard error", "setting": "[1]; [8]", "value": "0.69 ± 0.03", "unit": "mm"}, {"measurement": "Growth of hair follicles - elongation ± standard error", "setting": "[1]; [9]", "value": "0.84 ± 0.06", "unit": "mm"}, {"measurement": "Growth of hair follicles - elongation ± standard error", "setting": "[1]; [10]", "value": 0, "unit": "mm"}, {"measurement": "Growth of hair follicles - elongation ± standard error", "setting": "[1]; [11]", "value": "0.35 ± 0.01", "unit": "mm"}, {"measurement": "Growth of hair follicles - elongation ± standard error", "setting": "[1]; [12]", "value": "0.55 ± 0.02", "unit": "mm"}, {"measurement": "Growth of hair follicles - elongation ± standard error", "setting": "[1]; [13]", "value": "0.70 ± 0.03", "unit": "mm"}, {"measurement": "Growth of hair follicles - elongation ± standard error", "setting": "[1]; [14]", "value": "0.75 ± 0.06", "unit": "mm"}]}
